This is an account of results in ChEMBL document CHEMBL5154923 (J Med Chem, 2022).

Series [1] deals with T1, Serine/threonine-protein kinase 17A (Homo sapiens) (UniProt Q9UEE5).
T1 sequence (whole entry): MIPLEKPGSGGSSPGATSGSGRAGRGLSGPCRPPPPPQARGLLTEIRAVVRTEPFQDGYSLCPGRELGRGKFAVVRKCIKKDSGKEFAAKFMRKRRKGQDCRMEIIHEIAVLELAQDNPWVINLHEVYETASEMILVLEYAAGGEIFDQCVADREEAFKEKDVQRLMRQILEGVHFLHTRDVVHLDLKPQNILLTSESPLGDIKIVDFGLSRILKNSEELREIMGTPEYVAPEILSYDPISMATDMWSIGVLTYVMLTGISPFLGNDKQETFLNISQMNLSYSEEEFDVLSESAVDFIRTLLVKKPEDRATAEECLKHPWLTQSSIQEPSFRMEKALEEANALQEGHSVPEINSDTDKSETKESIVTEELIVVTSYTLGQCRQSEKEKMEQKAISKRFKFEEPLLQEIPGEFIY
Briefly: Inhibition of human N-terminal His-tagged/ TEV cleavage fused DRAK1 (39 to 369 residues) expressed in Escherichia coli assessed as change in enthalpy by isothermal titration calorimetry. (In general: ITC needs no label: the signal is the heat of the interaction.)

The target of series [2] is T2, Casein kinase II subunit alpha (Homo sapiens, UniProt P68400). Nature of the series: Binding affinity to wild type full length human CK2alpha1 (1 to 391 residues) expressed in mammalian expression system assessed as change in melting temperature at 10 uM by SYPRO orange dye based DSF assay. (In general: Differential scanning fluorimetry follows unfolding on heating by fluorescence.)
Target sequence in this assay (P68400 whole entry, looked up, the tested form may be a part): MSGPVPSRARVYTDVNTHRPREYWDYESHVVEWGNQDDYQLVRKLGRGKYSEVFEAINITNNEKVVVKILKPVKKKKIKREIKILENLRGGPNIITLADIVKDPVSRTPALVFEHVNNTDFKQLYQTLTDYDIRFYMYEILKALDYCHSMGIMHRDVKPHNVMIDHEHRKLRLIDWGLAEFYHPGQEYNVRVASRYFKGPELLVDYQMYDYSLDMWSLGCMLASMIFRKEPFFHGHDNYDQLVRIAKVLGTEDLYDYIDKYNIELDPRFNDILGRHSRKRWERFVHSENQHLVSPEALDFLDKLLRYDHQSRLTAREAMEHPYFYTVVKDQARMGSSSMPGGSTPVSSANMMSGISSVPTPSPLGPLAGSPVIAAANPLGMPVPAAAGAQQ

Series [3] is described as follows: Binding affinity to wild type full length human CK2alpha2 (1 to 350 residues) expressed in mammalian expression system assessed as change in melting temperature by SYPRO orange dye based DSF assay.
The target in series [4] is T3, Serine/threonine-protein kinase 17A (Homo sapiens, UniProt Q9UEE5).
T3 sequence (Q9UEE5 whole entry): T1 sequence (whole entry)
Nature of the series: Inhibition of human N-terminal His-tagged/ TEV cleavage fused DRAK1 (39 to 369 residues) expressed in Escherichia coli using KKLNRTLSFAEPG peptide as substrate in presence of [gamma-33P]ATP by radiometric based scintillation proximity assay. For orientation: SPA uses beads or plates that emit light when radiolabelled molecules are held near them.

Series [5] has as its target T2, Casein kinase II subunit alpha. Nature of the series: Inhibition of CK2alpha1(unknown origin) transfected in HEK293T cells using NanoBRET NanoGlo as substrate incubated for 2 hrs by NanoBRET assay. It is filed as cell-based.
Target sequence in this assay (P68400 whole entry, the tested form may be a part): as the sequence (P68400 whole entry, looked up, the tested form may be a part) above
Series [6] deals with T4, Cyclin-G-associated kinase (Homo sapiens, UniProt O14976).
T4 sequence (O14976 whole entry): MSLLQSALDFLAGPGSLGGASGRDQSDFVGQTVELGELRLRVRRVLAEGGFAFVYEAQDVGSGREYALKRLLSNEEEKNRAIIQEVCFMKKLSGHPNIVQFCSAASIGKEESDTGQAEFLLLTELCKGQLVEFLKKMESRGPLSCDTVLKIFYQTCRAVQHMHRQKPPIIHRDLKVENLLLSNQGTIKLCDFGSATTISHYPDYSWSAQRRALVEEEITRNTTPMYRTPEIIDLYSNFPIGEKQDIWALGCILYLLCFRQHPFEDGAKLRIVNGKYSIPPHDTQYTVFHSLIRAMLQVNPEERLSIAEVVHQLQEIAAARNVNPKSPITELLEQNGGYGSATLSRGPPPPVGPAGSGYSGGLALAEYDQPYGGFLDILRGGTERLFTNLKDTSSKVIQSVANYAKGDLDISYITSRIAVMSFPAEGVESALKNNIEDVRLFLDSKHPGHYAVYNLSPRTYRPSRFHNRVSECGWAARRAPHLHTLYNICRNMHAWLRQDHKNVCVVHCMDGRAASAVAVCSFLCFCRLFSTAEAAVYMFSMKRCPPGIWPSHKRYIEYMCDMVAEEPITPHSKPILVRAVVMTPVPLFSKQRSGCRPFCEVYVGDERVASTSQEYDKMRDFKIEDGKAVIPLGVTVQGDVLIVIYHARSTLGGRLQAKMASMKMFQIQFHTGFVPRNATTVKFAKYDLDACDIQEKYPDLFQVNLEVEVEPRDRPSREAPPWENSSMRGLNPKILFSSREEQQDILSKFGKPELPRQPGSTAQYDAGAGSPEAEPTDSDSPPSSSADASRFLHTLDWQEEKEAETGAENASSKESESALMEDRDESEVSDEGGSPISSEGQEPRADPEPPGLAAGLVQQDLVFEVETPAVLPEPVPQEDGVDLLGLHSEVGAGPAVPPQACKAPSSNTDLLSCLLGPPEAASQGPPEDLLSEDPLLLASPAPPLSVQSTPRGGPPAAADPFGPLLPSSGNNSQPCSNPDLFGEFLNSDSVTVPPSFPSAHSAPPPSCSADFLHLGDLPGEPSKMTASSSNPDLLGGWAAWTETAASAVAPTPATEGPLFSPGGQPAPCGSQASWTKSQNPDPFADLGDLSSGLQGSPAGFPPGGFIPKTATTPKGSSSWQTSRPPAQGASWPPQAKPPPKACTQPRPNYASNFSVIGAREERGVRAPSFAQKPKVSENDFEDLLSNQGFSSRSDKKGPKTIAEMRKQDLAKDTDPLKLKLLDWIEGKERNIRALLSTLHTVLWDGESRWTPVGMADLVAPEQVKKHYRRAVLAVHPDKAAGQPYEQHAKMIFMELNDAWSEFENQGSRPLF
Briefly: Inhibition of GAK (unknown origin) transfected in HEK293T cells using NanoBRET NanoGlo as substrate incubated for 2 hrs by NanoBRET assay. The series is classed as cell-based.

For series [7], the target named is BMP-2-inducible protein kinase (Homo sapiens, UniProt Q9NSY1). Briefly: Binding affinity to BIKE (unknown origin) assessed as change in melting temperature at 10 uM by SYPRO orange dye based DSF assay.
In series [8] the test system is HEK-293T. Nature of the series: Cytotoxicity against human HEK293T cells at 1 uM incubated for 18 hrs. It is filed as toxicity, cell-based.
Series [9] concerns HEK-293T. Nature of the series: Cytotoxicity against human HEK293T cells assessed as increase in total apoptotic cells at 10 uM incubated for 18 hrs by Annexin V staining based method. The series is classed as toxicity, cell-based.
The test system of series [10] is HEK-293T. Nature of the series: Cytotoxicity against human HEK293T cells at 1 uM incubated for 36 hrs. The series is classed as toxicity, cell-based.
A short description of series [11]: Cytotoxicity against human MRC9 cells assessed as increase in total apoptotic cells incubated for 36 hrs by Annexin V staining based method. It is filed as toxicity, cell-based.
Series [12] relates to HEK-293T. Briefly: Induction of morphological changes in human HEK293T cells assessed as microtubule damage at 1 to 10 uM incubated for 18 hrs by confocal fluorescence microscopic analysis. The series is classed as toxicity, cell-based. The settings on record: dose 1-10 µM.
A short description of series [13]: Induction of morphological changes in human MRC9 cells assessed as microtubule damage at 1 to 10 uM incubated for 18 hrs by confocal fluorescence microscopic analysis. The series is classed as toxicity, cell-based. The settings on record: mrc9, 18 h, dose 1-10 µM.
Series [14] relates to HEK-293T. Briefly: Induction of morphological changes in human HEK293T cells assessed as mitochondrial damage at 1 to 10 uM incubated for 18 hrs by confocal fluorescence microscopic analysis. The series is classed as toxicity, cell-based. The settings on record: dose 1-10 µM.
The subject of another series is D-247MG. Nature of the series: Antiproliferative activity against human D-247MG cells assessed as reduction in cell viability after 1 to 7 days by resazurin dye based fluorimetric analysis. It is filed as functional.
The subject of another series is LN-18. Nature of the series: Antiproliferative activity against human LN-18 cells assessed as reduction in cell viability after 1 to 7 days by resazurin dye based fluorimetric analysis. It is filed as functional.
A short description of series [15]: Cytotoxicity against human MRC9 cells assessed as increase in total apoptotic cells at 10 uM incubated for 36 hrs by Annexin V staining based method. The series is classed as toxicity, cell-based. The settings on record: mrc9, 36 h.

Chain of BMP-2-inducible protein kinase (Q9NSY1 whole entry, looked up): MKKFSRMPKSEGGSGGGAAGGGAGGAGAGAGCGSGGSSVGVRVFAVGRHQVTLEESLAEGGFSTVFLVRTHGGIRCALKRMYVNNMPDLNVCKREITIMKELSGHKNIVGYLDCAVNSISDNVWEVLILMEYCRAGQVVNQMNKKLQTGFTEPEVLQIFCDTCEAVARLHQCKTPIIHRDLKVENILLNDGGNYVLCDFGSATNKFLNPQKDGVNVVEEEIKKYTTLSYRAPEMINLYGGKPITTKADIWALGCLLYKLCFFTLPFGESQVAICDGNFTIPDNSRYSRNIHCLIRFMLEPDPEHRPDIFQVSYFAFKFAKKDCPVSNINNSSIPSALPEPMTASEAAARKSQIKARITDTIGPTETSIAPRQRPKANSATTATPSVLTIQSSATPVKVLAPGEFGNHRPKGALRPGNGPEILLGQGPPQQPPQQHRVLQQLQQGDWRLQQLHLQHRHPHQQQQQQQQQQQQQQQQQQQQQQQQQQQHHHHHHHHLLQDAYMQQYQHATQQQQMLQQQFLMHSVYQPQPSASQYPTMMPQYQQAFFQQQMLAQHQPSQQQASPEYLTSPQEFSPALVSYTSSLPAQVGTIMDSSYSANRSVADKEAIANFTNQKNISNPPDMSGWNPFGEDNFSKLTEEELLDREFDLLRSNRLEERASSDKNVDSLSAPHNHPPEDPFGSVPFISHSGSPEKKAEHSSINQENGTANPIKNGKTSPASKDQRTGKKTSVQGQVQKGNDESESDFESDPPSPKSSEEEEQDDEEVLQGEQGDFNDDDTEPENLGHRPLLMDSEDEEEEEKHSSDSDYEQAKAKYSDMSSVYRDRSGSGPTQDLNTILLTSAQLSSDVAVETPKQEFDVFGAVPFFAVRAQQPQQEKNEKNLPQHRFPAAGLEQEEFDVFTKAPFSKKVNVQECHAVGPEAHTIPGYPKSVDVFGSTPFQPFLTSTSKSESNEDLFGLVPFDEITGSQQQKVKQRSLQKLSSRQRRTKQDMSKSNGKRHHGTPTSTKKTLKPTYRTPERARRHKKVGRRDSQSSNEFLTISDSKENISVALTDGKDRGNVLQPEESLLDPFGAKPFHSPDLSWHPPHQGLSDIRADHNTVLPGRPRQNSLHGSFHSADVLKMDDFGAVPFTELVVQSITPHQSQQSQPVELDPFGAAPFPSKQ

Usually ΔTm stands for the shift of the melting midpoint relative to a reference. The term IC50 denotes the concentration at which inhibition is half-maximal. As a reminder, the EC50 is the concentration needed to bring the measured effect to its halfway point. On to `CC(C)(C)NC(=O)c1ccc2cc1OCCOCCNc1ccn3ncc-2c3n1`, for which the deltaH in series [1] is -7.39 kcal/mol. Besides, the ΔTm in [2] is 0.8 °C; in series [3] it was 2.3 °C; in series [7] it was > 5 °C. The half-inhibitory concentration (IC50) in series [4] amounted to 49 nM; in [5], 34 µM; in series [6], 24 µM. For the same compound, the Activity result with HEK-293T [8] is “Non-Toxic”; in the series on HEK-293T [9], “Toxic”; in the series on HEK-293T [10], “Non-Toxic”; with HEK-293T [12] it was “Non-Toxic”; in series [13], “Non-Toxic”; with HEK-293T [14], “Non-Toxic”. Moreover, the Activity entry in [15] is on record as “Toxic”. Further, the EC50 at 36 h in series [11] is > 10 µM. In addition, the EC50 is 2750 nM with D-247MG and 11.2 µM with LN-18.
